Test results reported in US9580487B2, “Method of treating stomach or bowel-related disorders by administering glucagon-like-peptide-2 (GLP-2) analogues” (Zealand Pharma A/S, priority 2005, dated 2017).
Entries after “also recorded” stand apart in the source; their conditions may differ. No end group written: not given here.

Test system: male C57BL mice
Assay: Screening for intestinal growth effects (small intestine and colon mass relative to body weight, small intestine-colon sensitivity index)
Type: in vivo
Details: for Preferential growth of small intestine versus colon (small intestine-colon sensitivity): relative to [Gly2]GLP-2; for colon mass relative to body weight, % [Gly2]GLP-2 / small intestine-colon sensitivity index, (SI/Colon)X/(SI/Colon)[Gly2]GLP-2 %: male C57BL mice, 30 nmol/kg s.c. twice daily for ten days; for small intestine-colon sensitivity index, (SI/Colon)X/(SI/Colon)[Gly2]GLP-2 %: third value column
Method: The ability of the present compounds to stimulate intestinal growth was determined in male C57BL mice. Individual groups (n=6) of mice were given 30 nmol/kg of each compound, s.c, twice daily for ten consecutive days. For comparison purposes other groups of animals were given either an equimolar dose of [Gly2]GLP-2 (SEQ ID NO:54) or vehicle (phosphate buffered saline, pH 7.4) in the same dosing regimen. Twenty-four hours after the last dose of compound had been given the mice were sacrificed and the small intestine (from the pylorus to the cecum) and the colon (intestine distal to cecum) was emptied and weighed. To correct for slight difference in body weight (BW), the organ mass of the small intestine (SI) and colon were expressed relative to BW. The non-selective reference compound [Gly2]GLP-2 (SEQ ID NO:54) has been reported to stimulate gastrointestinal growth in both esophagus, stomach, small intestine and colon and to evaluate differences in growth pattern induced by compounds, the small intestine-colon sensitivity index of compound X was calculated as:
(SI/Colon)X/(SI/Colon)[Gly2]GLP-2%
Compounds with a small intestine-colon sensitivity greater than or equal to 1.05 were considered relatively selective for the small intestine (Table 15).
Compounds with a small intestine-colon sensitivity smaller than or equal to 0.95 were considered relatively selective for the colon (Table 15).

[1] = 30 nmol/kg s.c. twice daily, ten days

| Substance | Preferential growth of small intestine versus colon (small intestine-colon sensitivity) [1] | colon mass relative to body weight, % [Gly2]GLP-2 | small intestine-colon sensitivity index, (SI/Colon)X/(SI/Colon)[Gly2]GLP-2 % | Small intestine mass relative to [Gly2]GLP-2 (30 nmol/kg s.c. twice daily, ten days, equimolar [Gly2]GLP-2) |
| --- | --- | --- | --- | --- |
| [Gly2, Glu3, Leu10, Lys11, Ala16,24,28]hGLP-2(1-33)-(Lys)6-NH2 (HGEGSFSDELKTILDALAARDFIAWLIATKITDKKKKKK-NH2) [Compound 1850] | preferentially stimulating epithelial growth in the small intestine | 89 % [Gly2]GLP-2 | 116 % [Gly2]GLP-2 |  |
| [Gly2, Glu3, Leu10, Lys11, Ala16,24,28]hGLP-2(1-33)-NH2 (HGEGSFSDELKTILDALAARDFIAWLIATKITD-NH2) [Compound 1859] | preferentially stimulating epithelial growth in the small intestine | 73 % [Gly2]GLP-2 | 114 % [Gly2]GLP-2 |  |
| [Gly2, Glu3, Thr5, Leu10, Ala11,16,24,28]hGLP-2-(Lys)6-NH2 (HGEGTFSDELATILDALAARDFIAWLIATKITDKKKKKK-NH2) [Compound 1809] | preferentially stimulating epithelial growth in the small intestine |  |  | significant increase in the weight of the small intestine |
| [Gly2, Glu3, Thr5, Leu10, Lys11, Ala16,24,28]hGLP-2(1-33)-(Lys)6-NH2 (HGEGTFSDELKTILDALAARDFIAWLIATKITDKKKKKK-NH2) [Compound 1851] | preferentially stimulating epithelial growth in the small intestine | 96 % [Gly2]GLP-2 | 114 % [Gly2]GLP-2 |  |
| [Gly2, Glu3, Thr5, Leu10, Ser11, Ala16,24,28]hGLP-2(1-33)-(Lys)6-NH2 (HGEGTFSDELSTILDALAARDFIAWLIATKITDKKKKKK-NH2) [Compound 1845] | preferentially stimulating epithelial growth in the small intestine | 98 % [Gly2]GLP-2 | 107 % [Gly2]GLP-2 |  |
| [Gly2, Glu3, Thr5, Leu10, Ser11, Ala16,24,28]hGLP-2(1-33)-NH2 (HGEGTFSDELSTILDALAARDFIAWLIATKITD-NH2) [Compound 1854] | without preferential growth in small intestine or colon |  |  |  |
| [Gly2, Glu3, Thr5, Ser8,11, Leu10, Ala16,24,28]hGLP-2(1-33)-(Lys)6-NH2 (HGEGTFSSELSTILDALAARDFIAWLIATKITDKKKKKK-NH2) [Compound 1844] | supplementary increase in the weight of the small intestine without significant effecting the weight of the colon; also recorded: preferentially stimulating epithelial growth in the small intestine | 89 % [Gly2]GLP-2 | 119 % [Gly2]GLP-2 |  |
| [Gly2, Glu3, Thr5, Ser8,11, Leu10, Ala16,24,28]hGLP-2(1-33)-NH2 (HGEGTFSSELSTILDALAARDFIAWLIATKITD-NH2) [Compound 1853] | supplementary increase in the weight of the small intestine without significant effecting the weight of the colon; also recorded: preferentially stimulating epithelial growth in the small intestine | 96 % [Gly2]GLP-2 | 105 % [Gly2]GLP-2 |  |
| [Gly2, Glu3, Thr5, Ser8, Leu10, Lys11, Ala16,24,28]hGLP-2(1-33)-NH2 [Compound 1852] | supplementary increase in the weight of the small intestine without significant effecting the weight of the colon; also recorded: preferentially stimulating epithelial growth in the small intestine | 97 % [Gly2]GLP-2 | 109 % [Gly2]GLP-2 |  |
| [Gly2, Leu10, Ala24]hGLP-2-K6-NH2 (HGDGSFSDELNTILDNLAARDFIAWLIQTKITDKKKKKK-NH2) [Compound 1826] | preferentially stimulating epithelial growth in the small intestine |  |  |  |
| [Gly2, Leu10, Lys11, Ala24]hGLP-2(1-30)-K6-NH2 [Compound 1821] | without preferential growth in small intestine or colon |  |  |  |
| [Gly2, Leu10, Lys11, Ala24]hGLP-2(1-30)-NH2 (HGDGSFSDELKTILDNLAARDFIAWLIQTK-NH2) [Compound 1835] | preferentially stimulating epithelial growth in the colon | 105 % [Gly2]GLP-2 | 91 % [Gly2]GLP-2 |  |
| [Gly2, Leu10, Ser8,11, Ala24]hGLP-2(1-30)-K6-NH2 [Compound 1829] | without preferential growth in small intestine or colon |  |  |  |
| [Gly2, Leu10, Ser8,11, Ala24]hGLP-2(1-30)-NH2 (HGDGSFSSELSTILDNLAARDFIAWLIQTK-NH2) [Compound 1833] | without preferential growth in small intestine or colon |  |  |  |
| [Gly2, Leu10, Ser11, Ala24]hGLP-2(1-30)-K6-NH2 [Compound 1819] | preferentially stimulating epithelial growth in the small intestine |  |  |  |
| [Gly2, Leu10, Ser11, Ala24]hGLP-2(1-30)-NH2 (HGDGSFSDELSTILDNLAARDFIAWLIQTK-NH2) [Compound 1830] | preferentially stimulating epithelial growth in the colon | 106 % [Gly2]GLP-2 | 94 % [Gly2]GLP-2 |  |
| [Gly2, Ser8, Leu10, Ala11,24]hGLP-2(1-30)-K6-NH2 [Compound 1818] | supplementary increase in the weight of the small intestine without significant effecting the weight of the colon; also recorded: preferentially stimulating epithelial growth in the small intestine |  |  |  |
| [Gly2, Ser8, Leu10, Ala11,24]hGLP-2(1-30)-NH2 (HGDGSFSSELATILDNLAARDFIAWLIQTK-NH2) [Compound 1825] | without preferential growth in small intestine or colon |  |  |  |
| [Gly2, Thr7, Leu10, Lys11, Ala24]hGLP-2(1-30)-K6-NH2 [Compound 1822] | without preferential growth in small intestine or colon |  |  |  |
| [Gly2, Thr7, Leu10, Lys11, Ala24]hGLP-2(1-30)-NH2 (HGDGSFTDELKTILDNLAARDFIAWLIQTK-NH2) [Compound 1836] | preferentially stimulating epithelial growth in the colon | 105 % [Gly2]GLP-2 | 90 % [Gly2]GLP-2 |  |
| [Gly2, Thr7, Leu10, Ser8,11, Ala24]hGLP-2(1-30)-K6-NH2 [Compound 1828] | without preferential growth in small intestine or colon |  |  |  |
| [Gly2, Thr7, Leu10, Ser8,11, Ala24]hGLP-2(1-30)-NH2 (HGDGSFTSELSTILDNLAARDFIAWLIQTK-NH2) [Compound 1832] | without preferential growth in small intestine or colon |  |  |  |
| [Gly2, Thr7, Leu10, Ser11, Ala24]hGLP-2(1-30)-K6-NH2 [Compound 1827] | preferentially stimulating epithelial growth in the small intestine |  |  |  |
| [Gly2, Thr7, Leu10, Ser11, Ala24]hGLP-2(1-30)-NH2 (HGDGSFTDELSTILDNLAARDFIAWLIQTK-NH2) [Compound 1831] | preferentially stimulating epithelial growth in the colon | 102 % [Gly2]GLP-2 | 88 % [Gly2]GLP-2 |  |
| [Gly2, Thr7, Ser8, Leu10, Lys11, Ala24]hGLP-2(1-30)-K6-NH2 [Compound 1823] | without preferential growth in small intestine or colon |  |  |  |
| [Leu10, Ala11, Ala24]hGLP-2 (1-30)-NH2 [Compound 1841] | preferentially stimulating epithelial growth in the colon | 126 % [Gly2]GLP-2 | 90 % [Gly2]GLP-2 |  |
| [Leu10, Ala11, Ala24]hGLP-2 (1-33)-K6-NH2 [Compound 1839] | preferentially stimulating epithelial growth in the colon | 133 % [Gly2]GLP-2 | 84 % [Gly2]GLP-2 |  |
| [Leu10, Ala11, Ala24]hGLP-2 (1-33)-NH2 [Compound 1840] | preferentially stimulating epithelial growth in the colon | 131 % [Gly2]GLP-2 | 86 % [Gly2]GLP-2 |  |
